The target in series [1] is T1, Aβ40 (Homo sapiens, UniProt P05067).
T1 construct: pre-treated Aβ40 (40 μM in 20 mM Tris, pH 7.4)
Kind of series: Thioflavin T (ThT) Aβ aggregation assay. The following applies: for IC50: 20 μM Aβ40, 37 degrees C; for inhibition at 50 µM: 50 μM compound. In kind it is biochemical. The method, then:
Aβ40 (1.0 mg) was pre-treated in a 1.5 mL microfuge tube with HFIP (1 mL) and sonicated for 20 min to disassemble any pre-formed Aβ aggregates. The HFIP was removed with a stream of argon and the Aβ dissolved in Tris base (5.8 mL, 20 mM, pH ˜10). The pH was adjusted to 7.4 with concentrated HCl (−10 μL) and the solution filtered using a syringe filter (0.2 μm) before being used.
The kinetic ThT assay for Aβ aggregation is similar to that of Chalifour et al (Chalifour et al, 2003, J. Biol. Chem. 278:34874-81). Briefly, pre-treated Aβ40 (40 μM in 20 mM Tris, pH 7.4), was diluted with an equal volume of 8 μM ThT in Tris (20 mM, pH 7.4, 300 mM NaCl). Aliquots of Aβ/ThT (200 μL) were added to wells of a black polystyrene 96-well plate, followed by 2 μL of a compound in DMSO (variable concentration), or DMSO alone (controls). Incubations were performed in triplicate and were taken to contain 20 μM Aβ, various concentration of compound in 20 mM Tris, pH 7.4, 150 mM NaCl, 1% DMSO. Plates were covered with clear polystyrene lids and incubated at 37 degrees C. in a Tecan Genios microplate reader. Fluorescence readings (λex=450 nm, λem=480 nm) were taken every 15 min., after first shaking at high intensity for 15 s and allowing to settle for 10 s before each reading. Active compounds attenuated the increase in fluorescence over time that occurred in controls.

Series [2] in a line: Metabolic stability in mouse liver microsomes. The following applies: 1 μM compound, 0.5 mg/mL microsomal protein, 1 mM NADPH. In kind it is in vitro ADME. The method, then: This assay is used to determine the percent remaining and intrinsic clearance of a test compound incubated with pooled mouse liver microsomes in the presence of NADPH. Further details on this method may be found in Jeffrey P, et al., Utility of metabolic stability screening: comparison of in vitro and in vivo clearance. enobiotica. 2001 August-September; 31(8-9):591-8 and Lin J H, et al., Role of pharmacokinetics and metabolism in drug discovery and development. Pharmacol Rev. 1997; 49(4):403-49; each of which is hereby incorporated by reference. Test compound was formulated in 300 μL of DMSO at 10 mM and was diluted to 1 μM with final concentration of organic solvent <0.25% for the experiment. Pooled liver microsomes were prepared from male mice, with 1 mM NADPH. Test compound was incubated at 37 degrees Celsius in buffer containing 0.5 mg/mL microsomal protein; the reaction was initiated by adding cofactors and sampled at 0, 10, 20, 30, and 60 minutes. A positive control (5 μM testosterone) was incubated and initiated in parallel for quality control. Samples were analyzed using an LTQ-Orbitrap XL mass spectrometer; HRMS was used to determine the peak area response ratio (peak area corresponding to test compound or control divided by that of an analytical internal standard) without running a standard curve.
Results were reported for selected compounds in the table of Example 1, as % test compound remaining after 60 minutes. Compounds which have less than about 5% remaining are not considered to be metabolically stable in mouse liver microsomes, while compounds with more than about 5% remaining are considered to be metabolically stable in mouse liver microsomes.
(In general: Liver microsomes are vesicles of endoplasmic reticulum, rich in cytochrome P450 enzymes.)

T1 sequence (P05067 672-711 limits assumed): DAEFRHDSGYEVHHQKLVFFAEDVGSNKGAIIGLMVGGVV

As for `CN(C)C(=O)c1cccc(-c2ccc([N+](=O)[O-])c(NCc3ccccc3)c2)c1` [TRV 1102, 3′-(benzylamino)-N,N-dimethyl-4′-nitrobiphenyl-3-carboxamide], the IC50 in series [1] was found to be 4.11 ± 1.2 µM. Moreover, the “Stability in mouse liver microsomes (% test compound remaining after 60 min)” value in series [2] is under 1.0%.
In turn, `CCN(CC)C(=O)c1cccc(-c2ccc([N+](=O)[O-])c(NCc3ccccc3)c2)c1` [TRV 1110, 3′-(benzylamino)-N,N-diethyl-4′-nitrobiphenyl-3-carboxamide] returned an IC50 in series [1] of 0.7 ± 0.9 µM. In addition, the “Stability in mouse liver microsomes (% test compound remaining after 60 min)” value in series [2] is reported as under 1.0%.
For the compound `O=C(c1cccc(-c2ccc([N+](=O)[O-])c(NCc3ccccc3)c2)c1)N1CCCCC1` [TRV 1111, (3′-(benzyl amino)-4′-nitrobiphenyl-3-yl)(piperidin-1-yl)methanone], in series [1], the IC50 stood at 0.33 ± 0.44 µM. Moreover, in series [2], the “Stability in mouse liver microsomes (% test compound remaining after 60 min)” value is under 1.0%.
The compound `CC(C)N(C(=O)c1cccc(-c2ccc([N+](=O)[O-])c(NCc3ccccc3)c2)c1)C(C)C` [TRV 1112, 3′-(benzylamino)-N,N-diisopropyl-4′-nitrobiphenyl-3-carboxamide] displayed an IC50 in series [1] of 1.41 ± 1.11 µM. Moreover, in series [2], the “Stability in mouse liver microsomes (% test compound remaining after 60 min)” value is listed as under 1.0%.
For `CN1CCN(C(=O)c2cccc(-c3ccc([N+](=O)[O-])c(NCc4ccccc4)c3)c2)CC1` [TRV 1115, (3′-(benzyl amino)-4′-nitrobiphenyl-3-yl)(4-methylpiperazin-1-yl)methanone], in that order: 2.67 ± 0.1 µM and under 1.0%.
With `O=C(c1cccc(-c2ccc([N+](=O)[O-])c(NCc3ccccc3)c2)c1)N1CCCC1` [TRV 1117, (3′-(benzylamino)-4′-nitrobiphenyl-3-yl)(pyrrolidin-1-yl)methanone], in series [1], the IC50 came out at 2.94 ± 1.64 µM. Further, the “Stability in mouse liver microsomes (% test compound remaining after 60 min)” value in series [2] is under 1.0%.
As to `NS(=O)(=O)c1ccccc1-c1ccc([N+](=O)[O-])c(NCc2ccccc2)c1` [TRV 1121, 3′-(benzylamino)-4′-nitro-[1,1′-biphenyl]-2-sulfonamide], the IC50 in series [1] came out at 24.6 ± 6.83 µM. In addition, the “Stability in mouse liver microsomes (% test compound remaining after 60 min)” value in series [2] is under 1.0%.
As to `CC(O)c1cccc(-c2ccc([N+](=O)[O-])c(NCc3ccccc3)c2)c1` (stereo not drawn) [TRV 1129, 1-(3′-(benzylamino)-4′-nitrobiphenyl-3-yl)ethanol], in series [1], half-maximal inhibition (IC50) was put at 6.49 ± 0.21 µM. For the same compound, the “Stability in mouse liver microsomes (% test compound remaining after 60 min)” value in series [2] is recorded as under 1.0%.
For the compound `O=C(c1ccccc1)N1CCN(c2ccc([N+](=O)[O-])c(N3CCCC3)c2)CC1` [TRV 1141, (4-(4-nitro-3-(pyrrolidin-1-yl)phenyl)piperazin-1-yl)(phenyl)methanone], the IC50 in series [1] is about 10 µM. Moreover, the “Stability in mouse liver microsomes (% test compound remaining after 60 min)” value in series [2] is under 1.0%.
In turn, `O=C(c1ccccc1)N1CCN(c2ccc([N+](=O)[O-])c(NC3CC3)c2)CC1` [TRV 1142, (4-(3-(cyclopropylamino)-4-nitrophenyl)piperazin-1-yl)(phenyl)methanone] had an IC50 in series [1] of about 10 µM. Moreover, in series [2], the “Stability in mouse liver microsomes (% test compound remaining after 60 min)” value came out at 1.7%.
As to `O=[N+]([O-])c1ccc(-c2cccc(CO)c2)cc1NCc1ccccc1` [TRV 1147], the IC50 in series [1] was found to be 3.54 ± 0.46 µM. The “Stability in mouse liver microsomes (% test compound remaining after 60 min)” value in series [2] was under 1.0%.
In series [1], `N#Cc1ccc(N2CCN(C(=O)c3ccccc3)CC2)cc1N1CCCC1` [TRV 1167, 4-(4-benzoylpiperazin-1-yl)-2-(pyrrolidin-1-yl)benzonitrile] came in with an IC50 of over 50 µM.
In series [1], `CC(C)Nc1cc(N2CCN(C(=O)c3ccccc3)CC2)ccc1C#N` [TRV 1168, 4-(4-benzoylpiperazin-1-yl)-2-(isopropylamino)benzonitrile] showed an IC50 of over 50 µM.
The same measure, in the same setting: the figure for `CC(C)Nc1cc(N2CCN(C(=O)c3ccccc3)CC2)cc(C(F)(F)F)c1` [TRV 1169, (4-(3-(isopropylamino)-5-(trifluoromethyl)phenyl)piperazin-1-yl)(phenyl)methanone] is over 50 µM; for `O=C(c1ccccc1)N1CCN(c2cc(F)cc(N3CCCC3)c2)CC1` [TRV 1170, (4-(3-fluoro-5-(pyrrolidin-1-yl)phenyl)piperazin-1-yl)(phenyl)methanone] it is over 50 µM.
`O=C(c1ccccc1)N1CCN(c2cc(F)c(C(F)(F)F)c(N3CCCC3)c2)CC1` [TRV 1175, (4-(3-fluoro-5-(pyrrolidin-1-yl)-4-(trifluoromethyl)phenyl)piperazin-1-yl)(phenyl)methanone] displayed an IC50 in series [1] of over 50 µM.
The compound `CC(C)Nc1cc(N2CCN(C(=O)c3ccccc3)CC2)cc(F)c1C(F)(F)F` [TRV 1176, (4-(3-fluoro-5-(isopropylamino)-4-(trifluoromethyl)phenyl)piperazin-1-yl)(phenyl)methanone] came in with an IC50 in series [1] of over 50 µM.
`O=C(c1ccccc1)N1CCN(c2ccc(-n3cnnn3)c(NCc3ccccc3)c2)CC1` [TRV 1178, (4-(3-(benzylamino)-4-(1H-tetrazol-1-yl)phenyl)piperazin-1-yl)(phenyl)methanone] registered an IC50 in series [1] of over 50 µM.
`CC(C)Nc1cc(F)cc(N2CCN(C(=O)c3ccccc3)CC2)c1` [TRV 1179, (4-(3-fluoro-5-(isopropylamino)phenyl)piperazin-1-yl)(phenyl)methanone]: the IC50 in series [1] was over 50 µM.
The compound `O=C(c1ccccc1)N1CCN(c2ccc(OC(F)F)c(NCc3ccccc3)c2)CC1` [TRV 1184, (4-(3-(benzyl amino)-4-(difluoromethoxy)phenyl)piperazin-1-yl)(phenyl)methanone] returned a half-inhibitory concentration (IC50) in series [1] of over 50 µM.
Take `O=C(c1ccccc1)N1CCN(c2ccc(OC(F)(F)F)c(NCc3ccccc3)c2)CC1` [TRV 1185, (4-(3-(benzylamino)-4-(trifluoromethoxy)phenyl)piperazin-1-yl)(phenyl)methanone]: in series [1], the IC50 is over 50 µM.
For the compound `O=C(c1ccccc1)N1CCN(c2ccc(S(=O)(=O)C(F)(F)F)c(NCc3ccccc3)c2)CC1` [TRV 1186, (4-(3-(benzylamino)-4-((trifluoromethyl)sulfonyl)phenyl)piperazin-1-yl)(phenyl)methanone], the IC50 in series [1] was over 50 µM.
In turn, `O=C(c1ccccc1)N1CCN(c2cc(F)c(F)c(NCc3ccccc3)c2)CC1` [TRV 1190, (4-(3-(benzylamino)-4,5-difluorophenyl)piperazin-1-yl)(phenyl)methanone] yielded a half-maximal inhibitory concentration (IC50) in series [1] of about 50 µM.
The same measure, in the same setting: the figure for `CC(O)c1cccc(-c2ccc(OC(F)F)c(NCc3ccccc3)c2)c1` (stereo not drawn) [TRV 1192, 1-(3′-(benzylamino)-4′-(difluoromethoxy)biphenyl-3-yl)ethanol] is about 50 µM.
In the case of `CC(O)c1cccc(-c2ccc(F)c(N3CCCC3)c2)c1` (stereo not drawn) [TRV 1246], in series [1], the IC50 is under 50 µM and the inhibition at 50 µM came to 56.8%.
For `CC(O)c1cccc(-c2ccc(C#N)c(N3CCCC3)c2)c1` (stereo not drawn) [TRV 1248], in series [1], the IC50 is about 50 µM and the inhibition at 50 µM was 47.9%.

What is called IC50 is the midpoint of a concentration-inhibition curve. Low readings indicate greater potency in that assay, high ones weaker potency in that assay. The term inhibition denotes the relative decrease from the control value, in per cent.

These data come from patent US20140187556A1, “ANTI-AMYLOID COMPOUNDS AND METHODS” (Treventis Corporation, priority 2011, published 2014).
